The source of these data is US12281102B2, “Inhibitors of APOL1 and methods of using same” (Vertex Pharmaceuticals Incorporated, priority 2020, dated 2025).

Molecules are shown by their SMILES. Counter-ions that a name gives are not always drawn.

The assay concerns the target T1, G1 APOL1 (Homo sapiens, UniProt O14791, I384M/S342G).
T1 construct: expressed in transfected cells
T1 sequence (O14791 28-398 S342G/I384M): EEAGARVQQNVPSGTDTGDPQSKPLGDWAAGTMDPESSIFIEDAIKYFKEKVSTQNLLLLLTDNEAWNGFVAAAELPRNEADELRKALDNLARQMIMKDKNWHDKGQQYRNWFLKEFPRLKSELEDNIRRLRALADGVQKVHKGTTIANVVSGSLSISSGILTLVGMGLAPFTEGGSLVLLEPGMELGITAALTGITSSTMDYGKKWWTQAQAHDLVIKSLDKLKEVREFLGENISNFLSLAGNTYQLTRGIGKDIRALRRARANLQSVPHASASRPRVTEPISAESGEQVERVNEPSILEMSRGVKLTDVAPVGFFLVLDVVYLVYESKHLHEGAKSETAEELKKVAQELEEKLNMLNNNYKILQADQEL
Kind of assay: Acute APOL1 Thallium Assay with inducible stable clones of HEK 293 cells. It counts as cell-based. Conditions: HEK 293 T-Rex inducible stable clone expressing G1 APOL1; read-out: Thallium Assay (IC50). Put shortly: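 A tetracycline-inducible HEK293 T-Rex clone (G1 DC3.25) expressing G1 APOL1 was plated at 26,000 cells/well, with tetracycline added at plating to induce expression. Cells were loaded with an AM-ester thallium-sensitive dye and stimulated with Tl+. Pore activity was read as the FLIPR Tetra fluorescence increase from Tl+ influx.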
As to `O=C1C=C(NC[C@H]2C[C@H](c3c(-c4ccc(F)cc4)[nH]c4c(F)cc(F)cc43)C2)C(=O)N1` [Compound 421, 3-((((1r,3r)-3-(5,7-difluoro-2-(4-fluorophenyl)-1H-indol-3-yl)cyclobutyl)methyl)amino)-1H-pyrrole-2,5-dione], the IC50 was more than 1000 nM.
As for `O=C1CC(NC[C@H]2C[C@H](c3c(-c4ccc(F)cc4)[nH]c4c(F)cc(F)cc43)C2)C(=O)N1` (stereo partly drawn) [Compound 422, 3-((((1r,3r)-3-(5,7-difluoro-2-(4-fluorophenyl)-1H-indol-3-yl)cyclobutyl)methyl)amino)pyrrolidine-2,5-dione], the figure is 250 to 1000 nM; as for `Fc1ccc(-c2[nH]c3c(F)cc(F)cc3c2[C@H]2C[C@H](CNc3nnc(C(F)(F)F)s3)C2)cc1` [Compound 423, N-(((1r,3r)-3-(5,7-difluoro-2-(4-fluorophenyl)-1H-indol-3-yl)cyclobutyl)methyl)-5-(trifluoromethyl)-1,3,4-thiadiazol-2-amine], more than 1000 nM; as for `OC[C@H]1C[C@H](c2c(-c3ccc(F)cc3)[nH]c3c(F)cc(F)cc32)C1` [Compound 425, [3-[5,7-difluoro-2-(4-fluorophenyl)-1H-indol-3-yl]cyclobutyl]methanol], less than 250 nM.
As for `NCC1(F)CC(c2c(-c3ccc(F)cc3)[nH]c3c(F)cc(F)cc23)C1` (stereo not drawn) [Compound 428, [3-[5,7-difluoro-2-(4-fluorophenyl)-1H-indol-3-yl]-1-fluoro-cyclobutyl]methanamine], the figure is 250 to 1000 nM.
Regarding `O=C(CO)N[C@H]1C[C@H](c2c(-c3ccc(F)cc3)[nH]c3c(F)cc(F)cc32)C1` [Compound 429, N-((1r,3r)-3-(5,7-difluoro-2-(4-fluorophenyl)-1H-indol-3-yl)cyclobutyl)-2-hydroxyacetamide], the IC50 lay in the range of 250 to 1000 nM.
Next, `NC[C@]1(O)C[C@@H](c2c(-c3ccc(F)cc3)[nH]c3c(F)cc(F)cc32)C1` [Compound 430, (1s,3s)-1-(aminomethyl)-3-(5,7-difluoro-2-(4-fluorophenyl)-1H-indol-3-yl)cyclobutan-1-ol]: 250 to 1000 nM; `CC(=O)NC[C@]1(O)C[C@@H](c2c(-c3ccc(F)cc3)[nH]c3c(F)cc(F)cc32)C1` [Compound 431, N-(((1s,3s)-3-(5,7-difluoro-2-(4-fluorophenyl)-1H-indol-3-yl)-1-hydroxycyclobutyl)methyl)acetamide]: more than 1000 nM.
As for `CC(=O)NC1CCC(c2c(-c3ccc(F)cc3)[nH]c3c(F)cc(F)cc23)CC1` (stereo not drawn) [Compound 435, N-(4-(5,7-difluoro-2-(4-fluorophenyl)-1H-indol-3-yl)cyclohexyl)acetamide], the figure is more than 1000 nM; as for `Fc1ccc(-c2[nH]c3c(F)cc(F)cc3c2CC2CNC2)cc1` [Compound 436, 3-(azetidin-3-ylmethyl)-5,7-difluoro-2-(4-fluorophenyl)-1H-indole], less than 250 nM.
Next, `O=C(N1CC(Cc2c(-c3ccc(F)cc3)[nH]c3c(F)cc(F)cc23)C1)C1(CO)CC1` [Compound 437, [3-[[5,7-difluoro-2-(4-fluorophenyl)-1H-indol-3-yl]methyl]azetidin-1-yl]-[1-(hydroxymethyl)cyclopropyl]methanone (Trifluoroacetate salt)]: 250 to 1000 nM; `C[C@H](O)C(=O)N1CC(Cc2c(-c3ccc(F)cc3)[nH]c3c(F)cc(F)cc23)C1` [Compound 438]: less than 250 nM; `O=C(CCO)N1CC(Cc2c(-c3ccc(F)cc3)[nH]c3c(F)cc(F)cc23)C1` [Compound 439]: less than 250 nM.
With `CNCC(=O)N1CC(Cc2c(-c3ccc(F)cc3)[nH]c3c(F)cc(F)cc23)C1` [Compound 440], the IC50 fell in the range of 250 to 1000 nM.
As for `O=C(c1c[nH]cn1)N1CC(c2c(-c3ccc(F)cc3)[nH]c3c(F)cc(F)cc23)C1` [Compound 441, (3-(5,7-difluoro-2-(4-fluorophenyl)-1H-indol-3-yl)azetidin-1-yl)(1H-imidazol-4-yl)methanone], the figure is 250 to 1000 nM; as for `O=C(N1CC(c2c(-c3ccc(F)cc3)[nH]c3c(F)cc(F)cc23)C1)C1(O)CC1` [Compound 442, (3-(5,7-difluoro-2-(4-fluorophenyl)-1H-indol-3-yl)azetidin-1-yl)(1-hydroxycyclopropyl)methanone], 250 to 1000 nM.
For `O=C(C1CC1)N1CCC(Cc2c(-c3ccc(F)cc3)[nH]c3c(F)cc(F)cc23)C1` (stereo not drawn) [Compound 445, Cyclopropyl-[3-[[5,7-difluoro-2-(4-fluorophenyl)-1H-indol-3-yl]methyl]pyrrolidin-1-yl]methanone], the IC50 is more than 1000 nM.
As for `NC(=O)C1(C(=O)N[C@H]2C[C@H](c3c(-c4ccc(F)cc4)[nH]c4c(F)cc(F)cc43)C2)CC1` [Compound 446, N^1′-[3-[5,7-difluoro-2-(4-fluorophenyl)-1H-indol-3-yl]cyclobutyl]cyclopropane-1,1-dicarboxamide], the IC50 was 250 to 1000 nM.
As for `NC(=O)CC(=O)N[C@H]1C[C@H](c2c(-c3ccc(F)cc3)[nH]c3c(F)cc(F)cc32)C1` [Compound 447, N′-[3-[5,7-difluoro-2-(4-fluorophenyl)-1H-indol-3-yl]cyclobutyl]propanediamide], the figure is 250 to 1000 nM; as for `NC(=O)CNC(=O)N[C@H]1C[C@H](c2c(-c3ccc(F)cc3)[nH]c3c(F)cc(F)cc32)C1` [Compound 448, 2-(3-((1r,3r)-3-(5,7-difluoro-2-(4-fluorophenyl)-1H-indol-3-yl)cyclobutyl)ureido)acetamide], 250 to 1000 nM.
As for `NC(=O)CNC(=O)C1CC(Cc2c(-c3ccc(F)cc3)[nH]c3c(F)cc(F)cc23)C1` (stereo not drawn) [Compound 449, N-(2-amino-2-oxoethyl)-3-((5,7-difluoro-2-(4-fluorophenyl)-1H-indol-3-yl)methyl)cyclobutane-1-carboxamide], the figure is more than 1000 nM.
As for `NC(=O)CC(=O)NC[C@H]1C[C@H](c2c(-c3ccc(F)cc3)[nH]c3c(F)cc(F)cc32)C1` [Compound 450, N^1-(((1r,3r)-3-(5,7-difluoro-2-(4-fluorophenyl)-1H-indol-3-yl)cyclobutyl)methyl)malonamide], the figure is 250 to 1000 nM; as for `NC(=O)C(=O)NC[C@H]1C[C@H](c2c(-c3ccc(F)cc3)[nH]c3c(F)cc(F)cc32)C1` [Compound 451], 250 to 1000 nM.
On to `NC(=O)C1(C(=O)NC[C@H]2C[C@H](c3c(-c4ccc(F)cc4)[nH]c4c(F)cc(F)cc43)C2)CC1` [Compound 452], for which the IC50 was more than 1000 nM.
Turning to `NC(=O)C(=O)NC[C@H]1C[C@@H](c2c(-c3ccc(F)cc3)[nH]c3c(F)cc(F)cc32)C1` [Compound 453, N^1-(((1s,3s)-3-(5,7-difluoro-2-(4-fluorophenyl)-1H-indol-3-yl)cyclobutyl)methyl)oxalamide], the IC50 was more than 1000 nM.
As for `CN(C)C(=O)CCC(=O)NC[C@H]1C[C@@H](c2c(-c3ccc(F)cc3)[nH]c3c(F)cc(F)cc32)C1` [Compound 454, N^1-(((1s,3s)-3-(5,7-difluoro-2-(4-fluorophenyl)-1H-indol-3-yl)cyclobutyl)methyl)-N^4,N^4-dimethylsuccinamide], the figure is more than 1000 nM; as for `NC(=O)C(=O)N1CC(Cc2c(-c3ccc(F)cc3)[nH]c3c(F)cc(F)cc23)C1` [Compound 455, 2-[3-[[5,7-difluoro-2-(4-fluorophenyl)-1H-indol-3-yl]methyl]azetidin-1-yl]-2-oxo-acetamide], 250 to 1000 nM.
